Experimental data published in article PMC8466947, “Polyphenol-Hydroxylating Tyrosinase Activity under Acidic pH Enables Efficient Synthesis of Plant Catechols and Gallols” (Microorganisms, 2021).

Target: T1, BmTy (tyrosinase from Bacillus megaterium) (Priestia megaterium, UniProt B2ZB02)
T1 construct: 6x His-tagged, expressed in E. coli BL21(DE3), Ni-NTA purified
T1 sequence (B2ZB02 1-297): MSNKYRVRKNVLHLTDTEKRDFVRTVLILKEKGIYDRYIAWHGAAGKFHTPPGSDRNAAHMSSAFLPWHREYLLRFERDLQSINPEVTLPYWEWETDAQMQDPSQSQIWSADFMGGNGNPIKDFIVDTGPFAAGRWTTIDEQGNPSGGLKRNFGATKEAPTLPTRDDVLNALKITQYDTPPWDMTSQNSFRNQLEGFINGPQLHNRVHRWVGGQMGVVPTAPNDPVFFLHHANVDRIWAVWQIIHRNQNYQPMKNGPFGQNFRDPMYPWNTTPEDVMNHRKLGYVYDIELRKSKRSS
Experiment: dopachrome assay at […] nm, initial rates, L-tyrosine as substrate (monophenolase activity)
Type: biochemical
Settings: read-out: KI1

With `O=c1c(O)c(-c2ccc(O)c(O)c2)oc2cc(O)cc(O)c12` [QUE, quercetin] the Ki was 33.9 µM.
